# How the values were obtained:
# CYP2C9 = assay: CYP phenotyping cocktail clinical study: torsemide/OH-torsemide metabolic ratio and its association with PCB plasma levels; settings: linear regression of MR AUC0–8 h OH-torsemide/torsemide (CYP2C9 activity) on PCB plasma concentration
# Method: The participants were ascertained not to have any acute disease by medical history, physical examination, laboratory screening, including hematological and biochemical blood tests, and a 12-lead electrocardiogram. […] The demographic data of the subjects are summarized in Table 1 in the supplemental data. At the enrollment visit, 2 blood samples (9 ml each) were collected into ethylenediaminetetraacetic acid (EDTA)-containing tubes taken from each subject for analyzing the plasma concentrations of PCB congeners and for pharmacogenetic analysis.
# Participants stayed fasted from the evening before until 3 h after drug administration. After that, a meal was provided. Water and juice were permitted but alcoholic and caffeinated beverages were not allowed from the evening before drug administration until the last blood sample was taken on the next day. Venous blood samples (9 ml each) were collected through an intravenous catheter immediately before and 0.25, 0.5, 0.75, 1, 1.5, 2, 2.5, 3, 4, 5, 6, 7, 8, and 24 h after drug administration. Blood was drawn into EDTA-coated tubes, centrifuged at 1500 g for 10 min at 4 °C, and plasma samples were subsequently stored at − 80 °C until further analysis. After completely voiding the bladder immediately before drug administration, the participants collected urine from 0 to 24 h after drug administration. After weighing the collected urine, a 10 ml aliquot of each fraction was taken.
# Commercially sourced standards and internal standards were used for quantification (see Supplemental Materials). In brief, 20 µl of the plasma samples were protein-precipitated with 80 µl methanol containing all internal standards or were treated for 16 h at 37 °C with 2 µl β-glucuronidase (1,000,000 Units) for deconjugation before protein precipitation with 78 µl methanol containing internal standards. Samples were centrifuged for 20 min, at 4 °C and 17,000 × g, and 40 µl of the supernatants were diluted with 40 µl LC–MS grade water, centrifuged again for 5 min at 4 °C and 17,000 × g and 50 µl supernatant were transferred to LC–MS vials 5 µl of the samples were injected into the LC–MS system.
# An Agilent 1290 Infinity II UHPLC coupled with a SCIEX QTRAP6500 + triple quadrupole mass spectrometer was used. Chromatographic separation was achieved on an Agilent Poroshell 120 EC-C18 (1.9 µm, 2.1 × 50 mm) column with A: 0.1% formic acid in water and B: methanol with a flow rate of 0.7 ml/min and a total run time of 8.5 min. Analytes were eluted using a gradient program. The following gradient steps represent gradual changes in % B over time: 5% B from 0 to 0.2 min, 30% B at 2 min, 34% B at 4.8 min, 95% B at 6.5 min, 95% B at 7.5 min and re-equilibrating to 5% B at 7.7 min and 5%B till 8.5 min. A representative chromatogram is shown in supplemental Fig. 2. The scheduled MRM mode was applied for analyte detection in both positive and negative ESI modes (Supplementary Table 4). Calibration curves were constructed with linear regression using weighted (1/x^2) models (detailed information in supplemental methods).
# Partial areas under the plasma concentration–time curves from 0 to 3 h (AUC0–3 h), from 0 to 4 h (AUC0–4 h), and from 0 to 8 h (AUC0–8 h) were calculated based on measured concentrations by the linear trapezoidal rule without extrapolation. […] Metabolic ratios (MR) were calculated by dividing the partial AUC of the metabolite by the respective partial AUC of the parent drug. The MRs were used as biomarkers for the individual CYP activities of the study subjects.
# [1] = Determination of PCB concentrations in plasma of HELPcB and control participants; type: in vivo; settings: human plasma
# recombinant CYP1A2 = target: T1, recombinant CYP1A2 (Homo sapiens, UniProt P05177); assay: Luciferase-based P450-Glo enzyme assay with recombinant CYP1A2; type: biochemical; settings: PCB118 1–10 µM; Luciferin–ME substrate; significant at highest concentration (p < 0.0001)
# T1 construct: purchased Promega, Madison, WI, USA
# T1 sequence (P05177 1-516): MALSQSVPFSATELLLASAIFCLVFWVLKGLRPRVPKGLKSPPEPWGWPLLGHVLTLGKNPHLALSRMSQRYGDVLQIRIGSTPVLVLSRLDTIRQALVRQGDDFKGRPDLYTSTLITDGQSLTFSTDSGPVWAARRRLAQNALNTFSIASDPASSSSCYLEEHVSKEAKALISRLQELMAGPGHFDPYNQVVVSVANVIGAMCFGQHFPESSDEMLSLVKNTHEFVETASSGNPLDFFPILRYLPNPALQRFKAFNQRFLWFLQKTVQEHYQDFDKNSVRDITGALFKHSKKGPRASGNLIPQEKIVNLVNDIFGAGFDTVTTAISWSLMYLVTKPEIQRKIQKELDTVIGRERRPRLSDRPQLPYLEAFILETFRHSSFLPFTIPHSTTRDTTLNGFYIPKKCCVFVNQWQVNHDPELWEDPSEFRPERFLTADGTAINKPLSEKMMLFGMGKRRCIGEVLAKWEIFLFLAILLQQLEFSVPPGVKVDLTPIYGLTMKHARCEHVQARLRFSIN
# [2] = target: T2, HEK293 cells overexpressing CYP1A2 (Homo sapiens, UniProt P05177); assay: CYP1A2 activity in transgenic HEK293 cells (phenacetin probe); type: cell-based; settings: 0.1, 0.5, 1 µM PCB118, 30 min, then 10 µM phenacetin 1 h
# T2 construct: expressed in transfected cells; host or cells: HEK293
# T2 sequence (P05177 1-516): T1 sequence (P05177 1-516)
structure (smiles),measurement,setting,value
Clc1ccc(-c2cc(Cl)c(Cl)cc2Cl)cc1Cl [PCB118],t value,CYP2C9,"1,339"
same,β (standardized regression coefficient),CYP2C9,"0,301"
same,t value,CYP2C9; PM excl,"1,228"
same,β (standardized regression coefficient),CYP2C9; PM excl,"0,286"
same,"PCB plasma concentration, Mean [±SD] HELPcB",[1]; HELPcB (occupationally exposed) group,0.122 ± 0.122 ng/mL
same,"PCB plasma concentration, Geometric mean, HELPcB","[1]; HELPcB group, N 10",0.075 ng/mL
same,"PCB plasma concentration, Mean [±SD] all",[1]; all participants,0.072 ± 0.099 ng/mL
same,"PCB plasma concentration, Mean [±SD] control",[1]; control group (background exposure),0.022 ± 0.012 ng/mL
same,"PCB plasma concentration, Geometric mean, Control","[1]; control group, N 10",0.019 ng/mL
same,effect on CYP1A2 enzyme activity (luminescence),recombinant CYP1A2,concentration-dependent inhibitory effect
same,effect on CYP1A2 activity in HEK293 cells (phenacetin probe),[2],significantly inhibited CYP1A2 activity in a dose-dependent manner

# — publication PMC12477080, “Polychlorinated biphenyls (PCBs) interact with drug metabolism in vivo” (Archives of Toxicology, 2025)
